The results in this text go back to patent US6417247B1, “Polymer/ceramic composites” (priority 1997, dated 2002).

The nature of this data set: Release of model compounds from chitosan-calcium phosphate composites in PBS. To be noted: chitosan-TCP composite, PBS pH 7.4, 37° C., FIG. 12.

In the case of `O=c1[nH]cc(F)c(=O)[nH]1` [5-FU, 5-fluorouracil], the “time over which the model compound was released from the composite” value was at most 10 h.
